According to patent US8617906B2, “Identification and screening of triptolide target molecules” (priority 2004, dated 2013):

What was measured:
[1] = molecular target: T1, Thioredoxin Reductase (PG774) (Homo sapiens, UniProt Q16881); experiment: Isolation of proteins binding 3H-triptolide in Jurkat cells; details: 3H-labeled compound incubated with Jurkat cells
T1 construct: endogenous in cells; host or cells: Jurkat
Experimental: (§1) Triptolide target molecules were isolated and identified by purification and identification of molecules that bind ^3H-triptolide. Jurkat cells from expanding cultures were labeled with ^3H-triptolide by cultivation at 37° C. with 5% CO2 for a period of time between a few hours and overnight (usually 6-7 hours) and harvested by centrifugation and washing in ice-cold phosphate buffered saline. The cells (usually 1-3×10^6/ml) were generally labeled with ^3H-triptolide to a final concentration of 35 nM (100 μCi/200 ml of medium). Collected cell pellets were pooled, and the cells were either extracted and subjected to separation and purification at that time, or were frozen and stored at −20° C. as pellets for extraction and investigation at a later time.
(§2) The cells were extracted with M-per buffer (Pierce) and homogenized in presence of a protease inhibitor cocktail, sometimes including other reagents such as deoxyribonuclease (DNase). […] When the extracts components were found not to be sufficiently purified, enriched or reduced in number, 2D gel electrophoresis was employed, followed by fluorography for ^3H-associated radioactivity detection, and MALDI/MS of the corresponding peptides (after proteolysis) and peptide fingerprinting. […]

[2] = molecular target: T2, Protein Disulfide Isomerase (PG775) (Homo sapiens, UniProt P07237); experiment: as above; details: 3H-labeled compound incubated with Jurkat cells
T2 construct: endogenous in cells; host or cells: Jurkat
Experimental: as §1, §2

[3] = molecular target: T3, Eukaryotic Translation Elongation Factor 2 (EEF2) (PG786) (Homo sapiens, UniProt P13639); experiment: as above; details: 3H-labeled Jurkat cell extract
T3 construct: endogenous in cells; host or cells: Jurkat
Experimental: as §1, §2

[4] = system: T4, Hypothetical Protein (GI 11277141), superfamily HSP 90 (PG788) (Homo sapiens); experiment: as above; details: 3H-labeled Jurkat cell extract
T4 construct: endogenous in cells; host or cells: Jurkat
Experimental: as §1, §2

dopaminergic neurons = details: cited from earlier work
[5] = molecular target: T5, Hypothetical Protein—GI 7705346 (PG790) (Homo sapiens, UniProt Q9Y4R8); experiment: Isolation of proteins binding 3H-triptolide in Jurkat cells; details: 3H-labeled Jurkat cell extract
T5 construct: Jurkat cells from expanding cultures were labeled with; endogenous in cells; host or cells: Jurkat
Experimental: as §1, §2

PC12 cells = details: cited from earlier work

T5 sequence (Q9Y4R8 whole entry): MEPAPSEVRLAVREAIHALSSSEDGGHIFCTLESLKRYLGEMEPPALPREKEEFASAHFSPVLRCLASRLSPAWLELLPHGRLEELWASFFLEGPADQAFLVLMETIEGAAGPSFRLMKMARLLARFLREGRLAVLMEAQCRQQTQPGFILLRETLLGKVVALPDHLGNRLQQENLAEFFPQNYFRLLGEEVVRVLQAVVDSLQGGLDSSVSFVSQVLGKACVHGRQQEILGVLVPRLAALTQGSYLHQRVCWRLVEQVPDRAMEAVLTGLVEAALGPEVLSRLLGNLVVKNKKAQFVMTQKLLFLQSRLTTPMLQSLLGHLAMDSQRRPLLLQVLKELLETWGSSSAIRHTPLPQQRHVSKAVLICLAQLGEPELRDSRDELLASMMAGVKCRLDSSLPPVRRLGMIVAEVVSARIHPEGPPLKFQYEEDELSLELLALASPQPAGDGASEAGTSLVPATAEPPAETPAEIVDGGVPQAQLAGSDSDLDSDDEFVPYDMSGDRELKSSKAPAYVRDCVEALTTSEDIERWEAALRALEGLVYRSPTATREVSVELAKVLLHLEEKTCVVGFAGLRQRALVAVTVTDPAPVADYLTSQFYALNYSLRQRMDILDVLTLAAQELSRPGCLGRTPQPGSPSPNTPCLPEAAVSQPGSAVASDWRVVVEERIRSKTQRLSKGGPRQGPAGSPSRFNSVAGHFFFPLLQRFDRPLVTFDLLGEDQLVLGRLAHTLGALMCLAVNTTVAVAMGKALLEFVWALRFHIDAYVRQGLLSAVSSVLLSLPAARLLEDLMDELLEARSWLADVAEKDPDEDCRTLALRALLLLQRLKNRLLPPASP
T2 sequence (P07237 18-508): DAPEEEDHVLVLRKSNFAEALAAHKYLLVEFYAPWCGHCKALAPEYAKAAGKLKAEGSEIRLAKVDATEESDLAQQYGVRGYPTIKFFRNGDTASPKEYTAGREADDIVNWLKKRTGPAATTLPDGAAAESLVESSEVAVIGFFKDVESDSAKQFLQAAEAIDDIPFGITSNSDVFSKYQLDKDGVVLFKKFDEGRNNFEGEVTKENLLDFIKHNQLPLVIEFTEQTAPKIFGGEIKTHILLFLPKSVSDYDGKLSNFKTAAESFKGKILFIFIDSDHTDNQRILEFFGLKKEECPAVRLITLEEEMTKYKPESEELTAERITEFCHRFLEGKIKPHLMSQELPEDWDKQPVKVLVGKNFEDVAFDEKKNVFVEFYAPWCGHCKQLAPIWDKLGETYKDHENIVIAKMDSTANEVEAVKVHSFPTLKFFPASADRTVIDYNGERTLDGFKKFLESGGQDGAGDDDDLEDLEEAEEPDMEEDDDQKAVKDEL
T4 sequence (P08238 2-724 limits assumed): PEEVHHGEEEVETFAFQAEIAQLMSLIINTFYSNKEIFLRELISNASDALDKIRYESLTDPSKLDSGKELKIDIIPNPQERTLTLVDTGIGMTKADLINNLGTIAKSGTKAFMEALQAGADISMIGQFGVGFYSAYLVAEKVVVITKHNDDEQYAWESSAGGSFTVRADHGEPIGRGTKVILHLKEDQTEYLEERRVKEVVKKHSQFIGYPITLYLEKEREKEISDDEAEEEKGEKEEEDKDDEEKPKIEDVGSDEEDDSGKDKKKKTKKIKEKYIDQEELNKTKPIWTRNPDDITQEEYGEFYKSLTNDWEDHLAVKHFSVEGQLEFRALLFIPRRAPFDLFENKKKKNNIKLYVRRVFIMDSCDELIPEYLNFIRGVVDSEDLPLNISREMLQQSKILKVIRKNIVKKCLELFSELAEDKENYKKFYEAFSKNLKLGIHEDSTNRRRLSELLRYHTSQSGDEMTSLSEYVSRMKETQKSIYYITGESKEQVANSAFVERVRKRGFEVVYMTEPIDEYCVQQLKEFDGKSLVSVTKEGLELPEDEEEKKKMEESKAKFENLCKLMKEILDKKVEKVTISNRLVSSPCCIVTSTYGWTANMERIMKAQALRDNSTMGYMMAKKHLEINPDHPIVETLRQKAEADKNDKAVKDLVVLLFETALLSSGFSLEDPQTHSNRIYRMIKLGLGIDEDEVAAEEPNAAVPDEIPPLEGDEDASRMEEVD
T1 sequence (Q16881 151-649 limits assumed): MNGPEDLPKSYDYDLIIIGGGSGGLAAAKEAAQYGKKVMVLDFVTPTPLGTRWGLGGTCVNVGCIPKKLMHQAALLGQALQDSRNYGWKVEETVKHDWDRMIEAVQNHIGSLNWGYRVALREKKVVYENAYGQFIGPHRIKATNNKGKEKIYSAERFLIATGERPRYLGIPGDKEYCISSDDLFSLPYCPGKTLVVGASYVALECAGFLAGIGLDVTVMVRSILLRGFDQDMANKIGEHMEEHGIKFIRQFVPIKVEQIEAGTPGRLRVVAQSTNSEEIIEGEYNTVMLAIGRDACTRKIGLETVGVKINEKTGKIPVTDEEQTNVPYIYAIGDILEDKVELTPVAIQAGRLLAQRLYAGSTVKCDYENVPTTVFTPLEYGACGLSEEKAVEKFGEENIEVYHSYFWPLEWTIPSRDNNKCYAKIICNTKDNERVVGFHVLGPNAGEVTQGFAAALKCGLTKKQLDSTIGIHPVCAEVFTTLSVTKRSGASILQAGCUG

CC(C)[C@]12O[C@H]1[C@@H]1O[C@]13[C@]1(O[C@H]1C[C@H]1C4=C(CC[C@@]13C)C(=O)OC4)[C@@H]2O [triptolide]
3H-associated protein identified as triptolide target: Thioredoxin Reductase [1]: identified
3H-associated protein identified as triptolide target: Protein Disulfide Isomerase [2]: identified
3H-associated protein identified as triptolide target: EEF2 [3]: identified
3H-associated protein identified as triptolide target: GI 11277141 [4]: identified
LPS-induced decrease in 3H-dopamine uptake and loss of tyrosine hydroxylase-positive neurons (dopaminergic neurons): attenuates
3H-associated protein identified as triptolide target: GI 7705346 [5]: identified
β-amyloid-induced apoptosis (PC12 cells): markedly inhibit β-amyloid-induced apoptosis
β-amyloid-induced increase of intracellular Ca2+ concentration (PC12 cells): inhibit the increase of intracellular Ca^2+ concentration induced by β-amyloid
